Values quoted from earlier work as cited in US12090150B2, “Deuterated analogs of elacridar” (priority 2018, dated 2024).

Legend:
[1] = test system: P-gp and BCRP at the blood brain barrier; settings: rodents; morphine, amprenavir, imatinib, dasatinib, gefitinib, sorafenib, sunitinib
[2] = test system: P-gp/BCRP pumps located in the GI tract; settings: cancer patients

**Q.** What does the source list for COc1cc2c(cc1OC)CN(CCc1ccc(NC(=O)c3cccc4c(=O)c5cccc(OC)c5[nH]c34)cc1)CC2 [elacridar, 9,10-dihydro-5-methoxy-9-oxo-N-[4-[2-(1,2,3,4-tetrahydro-6,7-dimethoxy-2-isoquinolinyl)ethyl]phenyl]-4-acridine-carboxamide]?
**A.** increase of drug levels in the brain of coadministered pump substrates [1]: some success; oral absorption of coadministered paclitaxel (P-gp substrate) and topotecan (BCRP substrate) [2]: improved; solubility in water: practically insoluble in water
